These results are taken from US6682892B2, “Method for treating herpes viruses” (priority 2000, dated 2004).

Where only a bound is given, the exact number is not on record here.

For one assay, the target named is T1, HCMV V823A polymerase (Human cytomegalovirus, UniProt P08546, V823A).
T1 construct: made in house
T1 sequence (P08546 1-1242 V823A): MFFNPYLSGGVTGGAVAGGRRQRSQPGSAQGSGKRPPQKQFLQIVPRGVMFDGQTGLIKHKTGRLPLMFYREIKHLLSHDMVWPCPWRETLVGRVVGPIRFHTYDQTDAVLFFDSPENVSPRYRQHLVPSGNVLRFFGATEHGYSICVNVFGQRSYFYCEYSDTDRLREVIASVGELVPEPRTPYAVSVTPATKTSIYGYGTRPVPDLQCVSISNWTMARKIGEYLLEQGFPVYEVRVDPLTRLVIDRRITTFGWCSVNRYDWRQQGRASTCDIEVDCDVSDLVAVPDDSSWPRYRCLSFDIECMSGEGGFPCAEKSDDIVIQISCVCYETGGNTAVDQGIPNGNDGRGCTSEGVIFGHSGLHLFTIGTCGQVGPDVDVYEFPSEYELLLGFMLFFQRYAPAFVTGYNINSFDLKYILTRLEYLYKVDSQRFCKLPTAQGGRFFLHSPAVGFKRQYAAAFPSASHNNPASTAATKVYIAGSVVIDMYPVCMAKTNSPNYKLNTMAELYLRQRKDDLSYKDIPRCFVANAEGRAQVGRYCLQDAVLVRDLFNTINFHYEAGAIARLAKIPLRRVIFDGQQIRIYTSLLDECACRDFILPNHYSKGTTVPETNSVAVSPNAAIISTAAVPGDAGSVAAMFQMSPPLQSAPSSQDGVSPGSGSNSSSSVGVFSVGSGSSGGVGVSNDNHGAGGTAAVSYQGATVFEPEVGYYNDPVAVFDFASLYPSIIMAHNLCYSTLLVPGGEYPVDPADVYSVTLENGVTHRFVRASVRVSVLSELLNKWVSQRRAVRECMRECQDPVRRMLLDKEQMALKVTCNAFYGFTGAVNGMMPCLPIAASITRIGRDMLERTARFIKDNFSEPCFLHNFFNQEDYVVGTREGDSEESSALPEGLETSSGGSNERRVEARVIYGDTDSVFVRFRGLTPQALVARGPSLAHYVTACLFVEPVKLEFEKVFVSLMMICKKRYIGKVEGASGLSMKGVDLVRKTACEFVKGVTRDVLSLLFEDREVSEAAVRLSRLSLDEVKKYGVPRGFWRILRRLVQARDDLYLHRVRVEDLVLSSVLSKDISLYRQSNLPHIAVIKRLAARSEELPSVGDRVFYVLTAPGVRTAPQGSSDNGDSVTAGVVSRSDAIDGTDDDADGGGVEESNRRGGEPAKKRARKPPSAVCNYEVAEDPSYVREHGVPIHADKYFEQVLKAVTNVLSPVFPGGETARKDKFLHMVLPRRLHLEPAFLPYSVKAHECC
Briefly: In vitro polymerase assay, mutant HCMV polymerase V823A. The format is biochemical. As to the method: In order to select for a 4-oxo-DHQ HCMV resistant mutant, virus (strain AD169) is serially passaged in the presence of 20 uM a 4-oxo-DHQ. […] In order to determine if both valines need to be changed in order to confer resistance to the 4-oxo-DHQ's, in vitro polymerase assays are done using mutant HCMV polymerases containing either V823A or V823A plus V824L (Table 3).

A further assay relates to HSV-1 KOS. Briefly: Plaque reduction assay, HSV-1 KOS. The assay is classed as cell-based. The note with it: Table 1, plaque reduction, Vero cells; read-out: IC50 (uM), HSV-1 KOS. As to the method: (§1) Antiviral activity of compounds against herpesviruses such as HSV-1, HSV-2, or HCMV can be measured using plaque reduction assays. 0.1 ml of media containing approximately 50 PFU of virus is added to each well of a 24-well cell culture dish containing a confluent monolayer of cells (Vero cells for HSV-1 and HSV-2, HFF cells for HCMV). Compounds are dissolved in 100% DMSO and diluted in 100% DMSO as 200× stocks of the desired final drug concentration. Typically 5-6 two-fold dilutions are prepared for each compound. Dilutions of compounds are then added to media containing 0.8% CMC resulting in a final 1× drug concentration. After the virus-infected cells have incubated for 1 h at 37° C., the virus innoculum is removed and 1 ml of media containing 0.8% CMC and the various concentrations of compound is added to each well of the dish. The dish is incubated at 37° C. for approximately 2-3 days (HSV-1 and HSV-2) or 6-9 days (HCMV) to allow sufficient growth of virus to form plaques in the cell monolayer. Plaques can be observed and counted microscopically or by staining the cells with 0.1% crystal violet in 20% ethanol. […] Antiviral activity of a compound is expressed as the concentration of compound predicted to reduce the number of plaques in a well by 50% (IC50). The IC50 values are calculated by plotting the per cent inhibition vs. concentration of compound using EXCEL software for linear regression.
(§2) A panel of viruses consisting of four strains of HSV-1 (KOS, F, DJL, Patton) and three strains of HSV-2 (MS, 35D, 186) are tested in a plaque reduction assay against four different 4-oxo-DHQ compounds (#1, 2, 4, 5 as shown in FIG. 1), and one 4-oxo-DHTP compound (#3 as shown in FIG. 1) and against Acyclovir. The six drugs inhibited replication of the seven virus strains with IC50 values ranging from 2-10 μM (Table 1). In order to select for 4-oxo-DHQ resistant mutants, HSV-1 strains KOS, F, and DJL along with HSV-2 strains 186 and MS are serially passaged in the presence of 20 uM compound 1. Following the seventh passage, 4-oxo-DHQ resistant virus from each strain are plaque purified three times and high-titer stocks are made.
On the technique in general: Plaques are areas of infected cells; plaque reduction assays count them against a control.

For a further assay, the system named is HSV-1 F-M1 (V823A). Briefly: Plaque reduction assay, 4-oxo-DHQ resistant HSV-1 F-M1. The assay is classed as cell-based. As to conditions: Table 2, mutant V823A. As to the method:
Antiviral activity of compounds against herpesviruses such as HSV-1, HSV-2, or HCMV can be measured using plaque reduction assays. 0.1 ml of media containing approximately 50 PFU of virus is added to each well of a 24-well cell culture dish containing a confluent monolayer of cells (Vero cells for HSV-1 and HSV-2, HFF cells for HCMV). Compounds are dissolved in 100% DMSO and diluted in 100% DMSO as 200× stocks of the desired final drug concentration. Typically 5-6 two-fold dilutions are prepared for each compound. Dilutions of compounds are then added to media containing 0.8% CMC resulting in a final 1× drug concentration. After the virus-infected cells have incubated for 1 h at 37° C., the virus innoculum is removed and 1 ml of media containing 0.8% CMC and the various concentrations of compound is added to each well of the dish. The dish is incubated at 37° C. for approximately 2-3 days (HSV-1 and HSV-2) or 6-9 days (HCMV) to allow sufficient growth of virus to form plaques in the cell monolayer. Plaques can be observed and counted microscopically or by staining the cells with 0.1% crystal violet in 20% ethanol. […] The IC50 values are calculated by plotting the per cent inhibition vs. concentration of compound using EXCEL software for linear regression. […]

The next assay concerns HSV-1 F. The assay can be described thus: Plaque reduction assay, HSV-1 F. The assay is classed as cell-based. The note with it: Table 1, plaque reduction, Vero cells. As to the method:
as §1, §2

For `Cn1cc(C(=O)NCc2ccc(Cl)cc2)c(=O)c2cc(/C=C\CO)cc(F)c21` [Compound 1], the IC50 was 17.2 µM on HCMV V823A polymerase (Table 3), 2 µM in the assay on HSV-1 KOS, greater than 20 µM with HSV-1 F-M1 (V823A) and 2.5 µM in the assay with HSV-1 F. Also, the “increase in resistance, HCMV V823A polymerase” value on HCMV V823A polymerase (relative to wild type polymerase) was “*Generation of the valine to alanine at amino acid 823 of HCMV results in a 3.5-fold increase in resistance”.

A word on the IC50: it is the concentration that inhibits the measured activity by half.
